Where only a bound is given, the exact number is not on record here.

One may read the melting point as the temperature, or range, at which the solid turns liquid. `CCCCCCCCc1ccc(C(=O)C(O)c2ccccc2)cc1` (stereo unspecified): the melting point lay in the range of 65 to 70 °C.

In the case of `O=C(O)COCN(c1ccc(CN2CCN(Cc3ccccc3)C(=O)C2=O)cc1)c1ncccn1`, the melting point fell in the range of 85 to 90 °C.

`CCOc1nn(-c2ccc(C(F)(F)F)cn2)cc1CCCOc1cc(CC(=O)O)cc(OC)c1` gave a melting point of 125 to 126 °C.

With `COc1ccc(/C=C/C(=O)C2C(=O)CC(c3ccc(OC)cc3)C([N+](=O)[O-])C2c2ccc(OC)c(OC)c2)cc1` (stereo unspecified), the melting point was in the range of 126 to 128 °C.

For `O=C(Nc1nc2ccccc2s1)Nc1cccc2c1C1CCCCN1C2=O` (stereo unspecified), the melting point amounted to 260 °C.

For `COc1cccc(S(=O)(=O)N2C3CCC2CN(CC(=O)Nc2ccccc2C)C3)c1`, the melting point was 163 to 165 °C.

As for `COCn1ccnc1C(O)(c1ccc(Cl)cc1)c1ccc(Cl)cc1`, the melting point fell in the range of 145 to 146 °C.

Turning to `Clc1ccc2c(c1)N=C(N1CCCN(C3CC3)CC1)c1ccccc1N2`, the melting point lay in the range of 141 to 143 °C.

The compound `CCNC(=S)NS(=O)(=O)c1cc2c(cc1OC)OC(C)(C)C(NC(=O)c1cc(F)ccc1OC)C2` (stereo unspecified) had a melting point of 211 °C.

As to `COc1ccc2oc(C(O)Cc3ccccc3)cc2c1` (stereo unspecified), the melting point is 69 to 70 °C.

For the compound `CCCN1C(=O)N2C[C@@H](Cc3ccccc3)N=C2c2c1nc(Br)n2Cc1ccccc1`, the melting point lay within 200 to 206 °C.

`COC1CCN(S(=O)(=O)c2ccc(S(N)(=O)=O)cc2)CC1`: the melting point lay within 153 to 154 °C.

For the compound `O=C(O)C(CC1CCCC1)c1ccc(Cl)c(Cl)c1` (stereo unspecified), the melting point fell in the range of 74.5 to 76.9 °C.

`Fc1cccc(Cl)c1-c1c(Cl)cc(Cl)nc1Cl` displayed a melting point of 210 °C.

`Cc1[nH]c(=O)n(-c2cc(OC(C)C)c(Cl)cc2F)c(=O)c1F` had a melting point of 162 to 164 °C.

`COCC(=O)OC1(C(=O)COC(=O)C(C)C)CCC2C3CC(C)C4=CC(=O)C=CC4(C)C3C(O)CC21C` (stereo unspecified) returned a melting point of 148 to 150 °C.

As to `COC(=O)C(C)(C)Cc1ccc(CC(C)(C)C(=O)OC)cc1`, the melting point is 74 to 76 °C.

In turn, `O=C(O)CCc1cc2cc(Cl)ccc2n1S(=O)(=O)c1cccc2ccccc12` came in with a melting point of 165 to 175 °C.

As for `N#Cc1c(CNC(=O)C2(S(=O)(=O)c3ccc(Cl)cc3)CCCC2)nn(-c2ccccc2Cl)c1-c1ccc(Cl)cc1`, the melting point came out at 109 °C.

In the case of `COCc1c(C(=O)O)ncc2[nH]c3cccc(CN4CCOCC4)c3c12`, the melting point lay within 253 to 255 °C.

The compound `CN(C)C1CN(c2cc3nc4c(cc3cc2F)c(=O)c(C(=O)O)cn4C2CC2)C1` returned a melting point of 264 °C.

Regarding `CC(=O)n1nc(-c2cc(C(C)(C)C)c(O)c(C(C)(C)C)c2)c2cccnc21`, the melting point fell in the range of 169 to 171 °C.

As for `C#CCOc1cc(Oc2ccccc2)ncn1`, the melting point came to 71.1 °C.

`Nc1nc(Cl)c(C2=NCCN2)c(Cl)n1` gave a melting point of 197 to 198 °C.

`Cc1nn(-c2c(Cl)cc(C(F)(F)F)cc2Cl)c(N)c1C#C[Si](C)(C)C`: the melting point was 121 to 123 °C.

In turn, `COc1ccc(OC)c(NC(=O)NCC2(c3ccccc3)CCCCC2)c1` showed a melting point of 164 to 166 °C.

Consider `Nc1ccc(NC(=O)NCc2ccc3c(c2)CN(C2CCC(=O)NC2=O)C3=O)cc1` (stereo unspecified), for which the melting point is above 400 °C.

Compound `Oc1ccc(-c2nc3cc(O)cc(Br)c3o2)c(F)c1` showed a melting point of 248 to 250 °C.

`CC(=O)NCCCC(=O)OC1c2ccccc2C(=O)N1c1ccc2ccc(Cl)nc2n1` (single isomer, unassigned; (+)) came in with a melting point of 200 °C.

As to `CCC(C)N(C)C(=O)c1cc(-c2ccc(C)c(C)c2)c2sccc2c1` (stereo unspecified), the melting point turned out to be 120 °C.

Consider `CC(=O)CCN(CCN)c1nc2cc(Cl)ccc2o1`, for which the melting point was 126 °C.

In turn, `COc1ccc([C@@H]2Sc3cc(Oc4ccccc4)ccc3NC(=O)[C@@H]2O)cc1` displayed a melting point of 181 to 183 °C.

For `COC(=O)C1=C(O)c2sc3ccccc3c2S(=O)(=O)N1`, the melting point fell in the range of 240 to 242 °C.

The compound `CCOC(=O)c1nc2cc(Br)c(Br)cc2[nH]c1=O` showed a melting point of 235 to 236 °C.

Compound `CCCC1COC(Cn2nc[nH]c2=S)(c2ccc(Cl)cc2Cl)O1` (stereo unspecified) registered a melting point of 128 °C.

Compound `Clc1ccc(-c2cccs2)nn1` had a melting point of 155 °C.

Consider `O=C1CC(c2ccccc2)C(=O)N1c1cc(Cc2n[nH]c(=O)c3ccccc23)ccc1F` (stereo unspecified), for which the melting point was in the range of 114 to 120 °C.

Consider `CCSc1nc(C#N)c(C#N)nc1C`, for which the melting point lay within 91.5 to 92.5 °C.

For `O=c1cc(C(F)(F)F)[nH]c(=O)n1-c1cc([N+](=O)[O-])c(Cl)cc1F`, the melting point turned out to be 204 °C.

On to `COC(=O)c1ccc2ccc(OC(=S)N(C)C)cc2c1`, for which the melting point fell in the range of 124 to 126 °C.

As to `CCN1CC(=O)N(c2ccccc2C(F)(F)F)C1=S`, the melting point fell in the range of 82 to 85 °C.

Consider `CCC(=O)OCC1OC(n2cnc3c(OC)nc(N)nc32)C(O)C1O` (stereo unspecified), for which the melting point was determined as 124 °C.

On to `COC(=O)c1ccc(F)c(S(N)(=O)=O)c1`, for which the melting point lay within 127 to 129 °C.

On to `CCCCN(CCCC)c1ccc(C=CC2=C(OC)C(=CC=CC3=C(C#N)C(=C(C#N)C#N)OC3(C)C)CC(C)(C)C2)c(OC)c1`, for which the melting point was 244 to 246 °C.

Regarding `CC(NC(=O)C(C)(Cc1ccccc1)NC(=O)OC(c1ccc(F)cc1)C(C)C)c1ccccc1` (stereo unspecified), the melting point stood at 154 °C.

Consider `C=C1CC(COc2cccc3cccnc23)(c2ccc(Cl)cc2)OC1=O` (stereo unspecified), for which the melting point was 107 to 108 °C.

Compound `Clc1ccc2c(c1)C(c1ccccc1)=NCc1nnc(Br)n1-2` gave a melting point of 206 °C.

The compound `C[Si](C)(C)c1cccc(NC(=O)c2ccc(C(=O)O)cc2)c1` came in with a melting point of 211 to 213 °C.

For the compound `Cc1cccc(NC(=O)NC2CN(C(=O)C(C)(C)C)c3ccc(C)cc3N(CC(=O)c3ccccc3C)C2=O)c1` (stereo unspecified), the melting point lay in the range of 218 to 220 °C.

As for `COCC1OC(n2cnc3c(N)nc(Cl)nc32)C(O)C1O` (stereo unspecified), the melting point was 200 to 202 °C.

For `OCC1(c2nn(Cc3ccccc3F)c3nccnc23)CC=CO1` (stereo unspecified), the melting point amounted to 194 °C.

Consider `O=C(NCCc1ccccc1)c1ccc(OC(F)(F)F)cc1`, for which the melting point was 143 to 144 °C.

Compound `CC(C)N(Sc1ccc([N+](=O)[O-])cc1C(Cl)(Cl)Cl)C(C)C` came in with a melting point of 104 °C.

Regarding `COCCO[C@@H]1c2ccc3c(nc(C)n3C)c2O[C@H](c2ccccc2)[C@H]1OC(=O)CN(C)C`, the melting point was 175 °C.

As to `CC1(C)CCC(C)(C)c2cc3[nH]c(SCc4ccccn4)nc3cc21`, the melting point is 199 to 200 °C.

For the compound `OCc1cc2cccc(Br)c2s1`, the melting point is 82 to 83 °C.

`COc1ccc(C2(CC(=O)O)CNC(=O)C2)cc1` (stereo unspecified): the melting point fell in the range of 172 to 175 °C.

`CC(C)(C)c1cc(N2C=NC(NC(=N)N)S2)cc(C(C)(C)C)c1O` (stereo unspecified) showed a melting point of 276 °C.

Consider `Cc1ccc(N)cc1C(=O)O`, for which the melting point lay in the range of 142 to 144 °C.

In turn, `NCC(O)C(Oc1ccc(C(F)(F)F)cc1)c1ccccc1` (stereo unspecified) gave a melting point of 120 to 122 °C.

The compound `NC(=O)N(O)Cc1ccc(Br)cc1` returned a melting point of 157 to 159 °C.

`O=C1N(Cc2ccccn2)c2ccccc2C12COc1cc3c(c(-c4ccoc4)c12)CCO3` (stereo unspecified): the melting point was 195 to 197 °C.

`OCC1Cc2c([nH]c3ccccc23)CN1C(=S)SCc1ccc(Cl)cc1` (stereo unspecified) gave a melting point of 175 to 176 °C.

Regarding `COc1ccc(-c2c(SCc3ccncc3)oc3cc(OCc4ccccc4)ccc3c2=O)cc1`, the melting point worked out at 170 °C.

`COc1cc(Nc2nccc(Nc3cccc(OC(F)(F)F)c3)n2)cc(OC)c1OC` came in with a melting point of 154 to 156 °C.

As to `CCNC(=O)c1ccc(-c2ccc3nnn(C(C)(C)c4ccc5ncccc5c4)c3n2)cc1F`, the melting point lay within 132 to 135 °C.

Regarding `CCCc1ccccc1OCC(O)COc1cccc2oc(C(=O)O)cc(=O)c12` (stereo unspecified), the melting point lay within 168 to 170 °C.

As to `O=C1C[C@@H](O)C[C@H](CCc2c(Cl)cc(Cl)cc2OCc2ccc(F)cc2)O1`, the melting point lay within 133 to 135 °C.

`O=c1[nH]nc(Cc2ccncn2)c2ccccc12` came in with a melting point of 204 to 206 °C.

Compound `COC(=O)C1Cc2c([nH]c3ccccc23)C(c2cc3ccccc3o2)N1` (stereo unspecified) showed a melting point of 195 to 198 °C.

Compound `O=C1CCCN1CCn1c(=O)[nH]c2ncc(-c3ccc(-c4nc[nH]n4)cc3)nc21` came in with a melting point of 300 to 301 °C.

Regarding `COCCCNc1nc(N)c(C(=O)c2ccccc2[N+](=O)[O-])s1`, the melting point fell in the range of 170 to 172 °C.

On to `CNCCc1ccc2[nH]nc(S(=O)(=O)c3ccccc3)c2c1`, for which the melting point amounted to 42 °C.

Regarding `CCC(=O)CC(=O)c1ccc(C2CCC(CC)CC2)cc1` (stereo unspecified), the melting point turned out to be 78 °C.

`CCNC(=O)c1cc(NS(=O)(=O)c2ccc(C(F)(F)F)cn2)ccc1Oc1cncc(Cl)c1` came in with a melting point of 147 to 148 °C.

In turn, `CC(C)N(O)C(=O)Nc1cccc(S(C)=O)c1` (stereo unspecified) showed a melting point of 135 to 136 °C.

`CCn1cc(C(=O)O)c(=O)c2cc(F)c(N3CCOC(CCl)C3)c(F)c21` (stereo unspecified) registered a melting point of 212 to 215 °C.

`Cc1nn(-c2cc(Oc3ccc(N)cc3Cl)c(Cl)cc2Cl)c(=O)n1C(F)F` came in with a melting point of 161 to 162 °C.

The compound `CCCCCCCCc1ccc(C(O)CCCCCC(=O)OC)cc1` (stereo unspecified) showed a melting point of 49 to 50 °C.

`O=C(COc1ccc2ccccc2c1)NC(Cc1ccccc1)C(=O)CSCc1ccco1` (stereo unspecified): the melting point was 115 to 118 °C.

The compound `CC(C)OC(=O)c1nsc2ccc(-n3c(=O)cc(C(F)(F)F)n(C)c3=O)cc12` returned a melting point of 94 to 97 °C.

`Cc1nc2sccn2c(=O)c1CCN1CCC(=C2c3ccccc3CCn3ccnc32)CC1` yielded a melting point of 182 °C.

The compound `COCCOCn1cc(C(=O)NCc2ccc(Cl)cc2)c(=O)c2cc(CN3CCOCC3)ccc21` showed a melting point of 150 to 152 °C.

For `Fc1ccc(N2CCN(Cc3n[nH]c4ccccc34)CC2)cc1`, the melting point lay in the range of 191 to 192 °C.

As to `CC(C)(C)[Si](OCC1CSC2=C(O1)c1ccccc1C(=O)C2=O)(c1ccccc1)c1ccccc1` (stereo unspecified), the melting point is 205 to 210 °C.

For `COc1ccc(Br)cc1-c1cc(-c2ccc(Br)cc2)on1`, the melting point is 127 to 159 °C.
